Experimental data: article PMC5068727, “Low-dose oxytocin delivered intranasally with Breath Powered device affects social-cognitive behavior: a randomized four-way crossover trial with nasal cavity dimension assessment” (Translational Psychiatry, 2015)

Tests used:
Assay type in all cases: in vivo, human
[1] = Open label pilot study of peripheral OT pharmacokinetics; conditions: 5 participants, 1IU IV in 200ml 0.9% NaCl, 600ml/hour over 20 minutes, 30 to 60 minutes post-administration
Protocol: An open label pilot study comparing the pharmacokinetics of 24IU OPN-OT and 1IU IV-OT was conducted with 5 eligible participants (4 of these participants participated in the main study) to ensure that 1IU IV-OT would equal or exceed the serum exposure following IN-OT treatment. The IV OT (1IU) was mixed in 200ml 0.9% NaCl and administered at an infusion rate of 600ml/hour over 20 minutes. Blood was sampled just before administration (baseline) and at seven timepoints after completion of administration (10, 20, 30, 45, 60, 90, and 120 minutes). […] There was a one-month washout period, at the minimum, between participation in the pilot study and the experimental phase.

healthy male adults [2] = assay: Social cognition task: emotional and trustworthiness ratings of facial images; conditions: 1 IU IV over 20 min, estimated mean (SE), linear mixed model, SEM
Protocol: Participants completed the social cognition task 40 min after treatment in a magnetic resonance imaging scanner while functional magnetic resonance imaging and physiology data were recorded (results to be reported separately). Participants were presented with visual stimuli through magnetic resonance imaging-compatible goggles (VisualSystem; NordicNeuroLab, Bergen, Norway) using E-Prime 2.0 (Psychology Software Tools, PA, USA) and responded using a grip response collection system (ResponseGrip, NordicNeuroLab).
For the primary emotional expression evaluation outcome measure, participants were presented with 20 male and 20 female faces (as used previously[55]) displaying angry, happy and emotionally ambiguous facial expressions (derived from the Karolinska Directed Emotional Faces database[56]) and 20 images of geometrical shapes (data not presented). Following each presentation, participants were asked either: How angry is this person? (anchors: not angry—very angry) or How happy is this person? (anchors: not happy—very happy). Q2 was always the same: How much would you trust this person? (anchors: not at all—very much). Participants were asked to rank their answer on a visual analog scale from 1 to 5, with location of the cursor on the visual analog scale randomized for each question. Mean ratings for each of the questions were averaged per session within each of the emotional categories, yielding seven behavioral variables (Q1: Happy face—happy, Happy face—angry, ambiguous face—happy, ambiguous face—angry, angry face—happy, angry face—angry; Q2: Trust). These stimuli and questions were chosen to assess three levels of emotion perception; ambiguous, non-ambiguous with corresponding cues and ratings (for example, angry ratings of angry faces) and non-ambiguous with conflicting cues and ratings (for example, angry ratings of happy faces).
(§1) Analysis was conducted using IBM SPSS Statistics version 22 (IBM, Armonk, NY, USA) to explore pharmacokinetics and examine the impact of treatment on outcome measures. A linear mixed-model (LMM) approach was adopted[58] for the analysis of emotional expression evaluation, pharmacokinetics, state anxiety and trustworthiness. In contrast to a repeated-measures analysis of variance approach, LMM allows for the inclusion of participants in the analysis even if data are missing for some of the treatment conditions. All the models were fitted using an unstructured matrix. For any significant main effects (that is, P<0.05), post hoc tests were performed with the adjustment of critical P-values to correct for multiple comparisons using a 5% false discovery rate.[59] Experimental treatment was both a fixed and repeated effect in the LMM testing the impact of treatment on emotion and trustworthiness ratings. To investigate the impact of treatment on anxiety and blood plasma concentration of OT, AVP and cortisol, an LMM was fitted with three fixed factors (treatment, time, treatment × time) and one repeated factor (treatment).

cortisol = assay: Cortisol blood plasma concentration (ELISA); conditions: 1 IU IV, LMM pairwise comparison
Protocol: (§2) Blood samples were collected to assess peripheral levels of OT, AVP and cortisol at baseline and five time points after the completion of the 20-min IV administration (0, 10, 30, 60 and 120 mins) throughout the session. Up to two punctures with catheter placement were made to collect these blood samples, which were centrifuged at 4 °C within 5 min of blood draw with plasma frozen at −80 °C. Enzyme-linked immunosorbent assay using commercial kits (Enzo Life Sciences, Farmingdale, NY, USA) was performed using standard techniques (including sample extraction[57]).
as §1

[3] = Oxytocin blood plasma concentration (ELISA); conditions: 1 IU IV over 20 min
Protocol: as §2
as §1, with “Experimental treatment was both a fixed and repeated effect in the LMM testing the impact of treatment on emotion and trustworthiness ratings. To investigate the impact of treatment on anxiety and blood plasma concentration of OT, AVP and cortisol, an LMM was fitted with three fixed factors (treatment, time, treatment × time) and one repeated factor (treatment).” left out

healthy male adults [4] = assay: Self-reported adverse events; conditions: 1 IU IV; 16 healthy males, single dose
Protocol: At various points (−20, 0, 10, 30, 60 and 120 mins relative to start of functional magnetic resonance imaging) throughout testing, participants reported the presence and severity of any adverse effects.

## CC[C@H](C)[C@@H]1NC(=O)[C@H](Cc2ccc(O)cc2)NC(=O)[C@@H](N)CSSC[C@@H](C(=O)N2CCC[C@H]2C(=O)N[C@@H](CC(C)C)C(=O)NCC(N)=O)NC(=O)[C@H](CC(N)=O)NC(=O)[C@H](CCC(N)=O)NC1=O [IV OT, oxytocin]
[1]
  Peripheral (serum) OT levels relative to 24IU OPN-OT: reasonably approximated the levels achieved after 24IU OPN-OT administration
Healthy male adults [2]; single dose, task 40 min after treatment, visual analog scale 1 to 5, 16 healthy males
  Angry ratings of ambiguous faces: 2.32 (0.18)
Healthy male adults [2]; collapsed across emotional categories, scale 1 to 5
  Trustworthiness: 3.16 (0.05)
Healthy male adults [2]; scale 1 to 5
  Angry ratings of angry faces: 3.68 (0.2)
  Angry ratings of happy faces: 1.24 (0.02)
  Happy ratings of ambiguous faces: 2.38 (0.14)
  Happy ratings of happy faces: 4.31 (0.13)
cortisol
  Cortisol blood plasma concentration compared with 8 IU OPN-OT: but not 8 IU OPN-OT
cortisol; P<0.001
  Cortisol blood plasma concentration compared with 24 IU OPN-OT: significantly increased
cortisol; P=0.01
  Cortisol blood plasma concentration compared with placebo: significantly increased
[3]; baseline and 0, 10, 30, 60, 120 min, ELISA with extraction, LMM pairwise comparison, P<0.001
  Plasma OT concentration compared with placebo: significantly increased
[3]; shortly after IV administration compared with all other time points, all P<0.001
  Plasma OT concentration, simple effect for time: significantly higher concentrations shortly after IV administration
Healthy male adults [4]
  Adverse events (for example, brief dizziness): three
